Laboratory results as given in patent publication US20190247449A1, “COMPOSITIONS COMPRISING A NON-PATHOGENIC BACTERIA AND METHODS FOR […] AND ANIMAL HOSTS FROM FUNGAL, BACTERIAL AND VIRAL DISEASES” (priority 2016, published 2019).

What was measured:
Format in all cases: cell-based
[1] = tested on: TNF-α production; assay: TNF-α determination by ELISA in activated macrophages; settings: RAW 264.7 macrophages activated with LPS and IFN-γ, agents added one hour before, 24 hours
Method: (§1) RAW 264.7 macrophages were grown in flat-bottomed flasks using a standard growth medium (DMEM supplemented with 5% FBS, antibiotics and glutamine. The cells were maintained in accordance with standard procedures well known in the art. After the cells reached confluence, they were removed from the flasks using mechanical means and then concentrated by centrifuging and resuspended in a small volume of fresh culture medium. The cell concentration was adjusted with growth medium in order that about 75,000 cells could be added to each well of a 96-well plate. A combination of 25 µg/mL LPS and 10 U/ml IFN-γ DMEM, was used for activation of the macrophages. The various test agents were added to the wells one hour prior to activation. The cells were then incubated for a further 24 hours, prior to assaying the inflammatory mediator production and cell viability.
A sandwich ELISA was used to determine TNF-α concentration. The primary antibody was used at a concentration of […] in PBS. Serial dilutions of TNF-α standard from 0 to 1000 pg/mL in diluent (0.05% Tween-20, 0.1% BSA in PBS) were used as internal standard. TNF-α was detected with a biotinylated second antibody and an avidin peroxidase conjugate with TMB as detection reagent. The color development was monitored at 655 nm, taking readings after every 5 minutes. After 25 minutes, the reaction was stopped using 0.5 M sulphuric acid and the absorbance was measured at 450 nm.

[2] = tested on: RAW 264.7 macrophages; assay: Cell viability, Alamar Blue assay; settings: % of untreated control cells
Method: as §1
The Alamar Blue assay of viability was performed by adding 100 μL of a 10% Alamar Blue solution to each well and incubating at 37° C. for 1-2 hr. Fluorescence was measured (excitation at 545 nm and emission at 595 nm) and expressed as a percentage of the values in untreated control cells.

[3] = tested on: NO production; assay: Nitric oxide production by Griess assay in activated macrophages
Method: as §1
The production of NO by the macrophages subjected to the various treatments was assayed using the Griess reagent (equal volumes of 1% sulphanilamide and 0.1% napthyethylene-diamine in 5% HCl). 70 μL of supernatant from each test well was transferred to a fresh 96-well plate and mixed with 70 μL of Griess reagent and the violet color produced was measured at 540 nm.

[4] = at the IC50 for inhibition of NO
[5] = at the IC50 for inhibition of TNF-α

Compound	IC50 ([1]; Mus musculus, RAW264.7, read-out: IC50 for the inhibition of TNF-α production)	Cell viability (% of cell survival) [2, 4]	Cell viability (% of cell survival) [2, 5]	IC50 ([3]; Mus musculus, RAW264.7, read-out: IC50 for the inhibition of NO production)	IC50 for the inhibition of TNF-α production [1]	IC50 for the inhibition of NO production ([3]; RAW 264.7 macrophages activated with LPS and IFN-γ, agents added one hour before, 24 hours)
C=C[C@](C)(O)CC[C@@H]1[C@@]2(C)CCCC(C)(C)[C@@H]2CC[C@@]1(C)O [Sclareol]	80 µg/mL	96.20 ± 2.1 % of cell survival	95.30 ± 2.2 % of cell survival	40 µg/mL	–	–
Naringin	–	90.10 ± 4.2 % of cell survival	91.50 ± 5.2 % of cell survival	–	90 µg/mL	40 µg/mL
Steviol glycoside	–	98.20 ± 4.2 % of cell survival	99.54 ± 4.1 % of cell survival	–	80 µg/mL	–
